This note sets out measurements from ChEMBL document CHEMBL4808208, “Hepatoselective Dihydroquinolizinone Bis-acids for HBsAg mRNA Degradation” (ACS Med Chem Lett, 2021).

The test system of series [1] is Hepatitis B virus. Briefly: Antiviral activity against Hepatitis B virus infected in human HepG2.2.15 cells assessed as reduction in HBV subgenomic 2.4/2.1 kb mRNA level at 1 uM measured after 5 days by Northern blot analysis. In kind it is functional, organism-based. The following applies: time 5.0 day.
Another series addresses Cytochrome P450 2C9 (Homo sapiens, UniProt P11712). Description: Inhibition of CYP2C9 in human liver microsomes using tolbutamide as substrate preincubated for 5 mins followed by NADPH addition by LC-MS/MS analysis. Type of series: ADME.
Series [2] is described as follows: Cmax in CD-1 mouse plasma at 8 mg/kg, po measured for 24 hrs by LC-MS/MS analysis. In kind it is ADME, organism-based. Also noted: route oral, dose 8 mg/kg, time 24 hrs.
The next series addresses Cytochrome P450 2E1 (Homo sapiens, UniProt P05181). Description: Inhibition of CYP2E1 in human liver microsomes using chlorzoxazone as substrate preincubated for 5 mins followed by NADPH addition by LC-MS/MS analysis. Type of series: ADME. In general terms: Liver microsomes are a subcellular fraction often used to study metabolism.
Series [3] in a line: Oral bioavailability in CD-1 mouse plasma at 8 mg/kg measured for 24 hrs by LC-MS/MS analysis. Type of series: ADME, organism-based.
The next series has as its target T1, Cytochrome P450 1A2 (Homo sapiens, UniProt P05177).
T1 sequence (P05177 whole entry): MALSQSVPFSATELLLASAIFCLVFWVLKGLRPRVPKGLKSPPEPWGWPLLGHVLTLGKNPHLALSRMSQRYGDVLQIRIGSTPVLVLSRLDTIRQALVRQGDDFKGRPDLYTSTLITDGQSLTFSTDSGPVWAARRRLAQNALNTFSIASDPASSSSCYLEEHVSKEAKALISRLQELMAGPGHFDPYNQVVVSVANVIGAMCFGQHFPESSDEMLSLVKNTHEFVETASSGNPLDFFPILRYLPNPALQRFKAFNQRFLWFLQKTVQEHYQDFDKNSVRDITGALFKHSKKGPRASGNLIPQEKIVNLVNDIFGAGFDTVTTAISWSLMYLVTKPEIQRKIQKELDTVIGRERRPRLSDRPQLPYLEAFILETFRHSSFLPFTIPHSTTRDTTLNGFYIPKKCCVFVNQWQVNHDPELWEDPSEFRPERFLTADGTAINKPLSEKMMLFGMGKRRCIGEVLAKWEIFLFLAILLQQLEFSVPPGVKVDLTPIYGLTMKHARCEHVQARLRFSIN
Briefly: Inhibition of CYP1A2 in human liver microsomes using phenacetin as substrate preincubated for 5 mins followed by NADPH addition by LC-MS/MS analysis. Type of series: ADME.

Series [4] in a line: Drug concentration in CD-1 mouse liver at 8 mg/kg, po measured after 8 hrs by LC-MS/MS analysis. In kind it is ADME, organism-based. The following applies: read-out: Ct.
Series [5] can be described thus: Drug concentration in CD-1 mouse liver at 8 mg/kg, po measured after 6 hrs by LC-MS/MS analysis. Type of series: ADME, organism-based. The following applies: read-out: Ct.
The nature of series [6]: Drug concentration in CD-1 mouse liver at 8 mg/kg, po measured after 2 hrs by LC-MS/MS analysis. The conditions noted are these: read-out: Ct. In kind it is ADME, organism-based.
The nature of series [7]: Ratio of Cmax in liver to plasma in CD-1 mouse at 8 mg/kg, po by LC-MS/MS analysis. In kind it is ADME, organism-based.
Series [8] deals with Hepatitis B virus. Briefly: Antiviral activity against Hepatitis B virus infected in human HepG2.2.15 cells assessed as reduction in HBV pregenomic mRNA level at 1 uM measured after 5 days by Northern blot analysis. The following applies: time 5.0 day. In kind it is functional, organism-based.
Series [9] in a line: 1-Octanol/saturated PBS buffer distribution coefficient, logD of the compound incubated for 1 hr by LC-MS/MS analysis. Type of series: physicochemical.

SMILES strings stand for the structures. Where “and” joins values, the source holds several entries; their conditions need not be identical. Equal entries are not always repeated. Calls of active or inactive are those of the source. The rule behind the calls is not given here.

Cytochrome P450 2E1, sequence (P05181 whole entry): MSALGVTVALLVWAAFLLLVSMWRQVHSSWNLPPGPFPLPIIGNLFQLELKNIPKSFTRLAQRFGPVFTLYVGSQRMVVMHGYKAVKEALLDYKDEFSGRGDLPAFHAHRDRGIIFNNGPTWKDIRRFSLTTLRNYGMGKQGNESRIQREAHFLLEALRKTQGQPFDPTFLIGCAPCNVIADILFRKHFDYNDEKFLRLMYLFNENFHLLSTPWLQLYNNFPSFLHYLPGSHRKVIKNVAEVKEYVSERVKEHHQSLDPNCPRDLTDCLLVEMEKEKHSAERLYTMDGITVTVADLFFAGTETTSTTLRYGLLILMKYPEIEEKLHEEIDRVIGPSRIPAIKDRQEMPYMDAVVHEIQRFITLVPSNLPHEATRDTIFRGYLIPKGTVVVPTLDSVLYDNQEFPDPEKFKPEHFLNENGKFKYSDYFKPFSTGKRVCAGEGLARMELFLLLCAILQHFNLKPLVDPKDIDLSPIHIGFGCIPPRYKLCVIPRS
Cytochrome P450 2C9, sequence (P11712 whole entry): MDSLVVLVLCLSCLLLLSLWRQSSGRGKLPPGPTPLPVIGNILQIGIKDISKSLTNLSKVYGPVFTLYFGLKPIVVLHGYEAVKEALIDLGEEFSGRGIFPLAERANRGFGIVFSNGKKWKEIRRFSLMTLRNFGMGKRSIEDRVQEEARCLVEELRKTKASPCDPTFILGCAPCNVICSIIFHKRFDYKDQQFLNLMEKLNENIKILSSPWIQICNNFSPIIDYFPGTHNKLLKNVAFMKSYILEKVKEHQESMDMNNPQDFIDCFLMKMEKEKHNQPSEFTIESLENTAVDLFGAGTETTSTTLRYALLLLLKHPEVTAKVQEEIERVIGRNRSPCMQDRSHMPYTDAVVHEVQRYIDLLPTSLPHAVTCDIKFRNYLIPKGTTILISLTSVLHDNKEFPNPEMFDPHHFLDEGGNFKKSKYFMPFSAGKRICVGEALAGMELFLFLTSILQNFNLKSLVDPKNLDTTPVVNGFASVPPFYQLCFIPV

Take `COc1cc2c(cc1OCCCCCCC(=O)O)C[C@@H](C(C)C)n1cc(C(=O)O)c(=O)cc1-2`: the result in the series on Hepatitis B virus [1] and in the series with Hepatitis B virus [8] was Active. Also, the IC50 at Cytochrome P450 2C9, on Cytochrome P450 2E1 and at Cytochrome P450 1A2 was above 10 µM in each case. Further, in series [2], the peak level (Cmax) was 16.1 ng/mL. The bioavailability (as a rule, the share of a dose that reaches the circulation, judged against a reference dose that is usually intravenous) in series [3] turned out to be 5.1%. Besides, in series [4], the concentration at 8 h was 63 ng/mL and 140 nM. The concentration at 6 h in series [5] was 76 ng/mL and 170 nM. Also, the concentration at 2 h in series [6] was 261 ng/mL and 570 nM. In addition, in [7], the Kp (as a rule, the ratio of the level in a tissue or fluid to that in plasma or blood) was found to be 20.7. The logD (in general, the decadic logarithm of the distribution of all forms, ionised or not, between an organic phase and buffer at a given pH) at 1 h in [9] was -0.65.
